Measurements taken from patent US8524277B2, “Extended release dosage form” (Alza Corporation, priority 1998, dated 2013).

Assay type: physicochemical
Excerpt: Hydrophilic materials for use in forming the interior wall which have solubilities sensitive to osmotic pressure or to ionic strength can be screened experimentally prior to formulating them within the interior wall. This procedure involves forming an aqueous solution of the candidate hydrophilic materials using distilled water as the solvent. Then, the resulting solution is cast onto a smooth inert surface, such as a glass plate, and allowed to dry to a film. The film is then removed and cut into sections of known area, thickness, and weight. The resulting film samples are then placed in a series of reference solutions of various osmotic pressures or ionic strengths with mild stirring. The time required for the film to dissolve, t, is then measured as a function of osmotic pressure or ionic strength. Then, given the known values of initial film thickness, hi, the dissolution rate of the film, dh/dt, can be calculated according to Equation 5. […]
The solubility of various hydrophilic materials to osmotic pressure was evaluated. […] Thicknesses of the discs were measured with a table micrometer. […] The time to dissolution was then monitored for each sample. Dissolution rate was calculated according to Equation 5 and plotted as a function of osmotic pressure for each molecular weight. […]

Substance: hydroxypropylcellulose [Klucel EF]
- osmotic pressure at which the film is insoluble: above 30 atmospheres
- osmotic pressure at which the film is soluble: 0-30 atmospheres
